One molecule from PMC3101337, “Interactions of the Melanocortin-4 Receptor with the Peptide Agonist NDP-MSH” (Journal of Molecular Biology, 2010) can be followed below.

The target of this test is T1, hMC4R mutant L106C (Homo sapiens, UniProt P32245, L106C).
T1 construct: expressed in transfected cells; host or cells: HEK293 CRE-Luciferase cells; mutant made by QuikChange on pcDNA3-MC4R
As to the kind of experiment: CRE-Luciferase cAMP activity assay, L106C MC4R. The note with it: L106C MC4R in HEK293 CRE-Luciferase cells, mean ± SEM, N = 3, NA = no activity, read-out: Ligand pEC50 (converted). It counts as cell-based.

T1 sequence (P32245 whole entry L106C): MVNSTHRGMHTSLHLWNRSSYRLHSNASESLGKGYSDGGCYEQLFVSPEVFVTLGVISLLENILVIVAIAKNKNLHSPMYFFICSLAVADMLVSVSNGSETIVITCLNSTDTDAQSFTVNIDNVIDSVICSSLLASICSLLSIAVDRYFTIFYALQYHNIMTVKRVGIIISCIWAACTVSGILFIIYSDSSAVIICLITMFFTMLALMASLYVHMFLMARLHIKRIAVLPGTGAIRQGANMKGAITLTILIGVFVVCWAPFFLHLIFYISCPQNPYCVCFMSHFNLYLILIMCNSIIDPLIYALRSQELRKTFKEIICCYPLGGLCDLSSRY
Protocol: Twenty-four hours posttransfection, HEK293 CRE-Luciferase cells were plated onto 96-well black-wall, clear-bottom, poly-D-lysine-coated microplates (Corning Costar) at a density of 50,000 cells/well and cultured for a further 12–18 h. […] Microtiter plates were incubated for 4 h at 37 °C, after which Luclite® reagent (Perkin-Elmer) was added to each well. The plates were sealed and subjected to dark adaptation for 5 min at room temperature. Luciferase activity was determined by scintillation counting using a TOPCount scintillation counter (Perkin-Elmer).
All measurements, except where stated, were carried out in triplicate in three independent experiments. The values quoted and depicted graphically are the means of independent determinations with the standard error of the mean. […] In a similar fashion, EC50 values were calculated from the fit of sigmoidal concentration–response curves (three-parameter fit). pIC50 refers to − log IC50, and pEC50 refers to − log EC50.

As to `CCCC[C@H](NC(=O)[C@H](CO)NC(=O)[C@H](Cc1ccc(O)cc1)NC(=O)[C@H](CO)NC(=O)CCCC[C@@H]1SC[C@@H]2NC(=O)N[C@@H]21)C(=O)N[C@@H](CCC(=O)O)C(=O)N[C@@H](Cc1c[nH]cn1)C(=O)N[C@H](Cc1ccccc1)C(=O)N[C@@H](CS)C(=O)N[C@@H](Cc1c[nH]c2ccccc12)C(=O)NCC(=O)N[C@@H](CCCCN)C(=O)N1CCC[C@H]1C(=O)N[C@H](C(N)=O)C(C)C` [Peptide 8], the EC50 is 6.46 nM.
